Series [1] addresses T1, human 5-HT2A receptor (Homo sapiens, UniProt P28223). Nature of the series: biochemical. In kind it is binding. The conditions noted are these: for displacement of [3H]ketanserin from the human 5-HT2A receptor: at 10 μM concentration. On the technique in general: Displacement assays read how much labelled ligand stays bound in the presence of the test substance.
The target of series [2] is T2, human 5-HT2C receptor (Homo sapiens, UniProt P28335).
T2 sequence (P28335 33-458): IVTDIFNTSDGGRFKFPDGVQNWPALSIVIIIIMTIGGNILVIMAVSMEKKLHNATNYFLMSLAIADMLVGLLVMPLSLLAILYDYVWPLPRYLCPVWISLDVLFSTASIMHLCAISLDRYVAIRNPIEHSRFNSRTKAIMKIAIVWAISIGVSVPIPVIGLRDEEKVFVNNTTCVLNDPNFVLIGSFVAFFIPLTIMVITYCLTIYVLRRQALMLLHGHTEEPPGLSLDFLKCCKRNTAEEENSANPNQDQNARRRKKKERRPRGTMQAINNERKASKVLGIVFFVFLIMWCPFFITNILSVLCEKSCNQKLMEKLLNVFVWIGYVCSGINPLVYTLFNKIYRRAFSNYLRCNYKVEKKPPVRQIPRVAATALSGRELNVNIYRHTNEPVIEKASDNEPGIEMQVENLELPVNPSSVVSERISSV
Nature of the series: Radioligand displacement binding, [3H]mesulergine, HeLa-5-HT2C cell membranes. The following applies: for Ki: [3H]mesulergine displacement, mean ± range of two independent assays; for 5-HT2A/2C: ratio of Ki 5-HT2A / Ki 5-HT2C; for selectivity for the 5-HT2C receptor: 5-HT2C over 5-HT2A.

In series [3] the target is T1, human 5-HT2A receptor. The series can be described thus: Functional Ca2+ mobilization fluorescence assay in CHO-5-HT2A cells. In kind it is cell-based. The conditions noted are these: for agonist character at 5-HT2A receptor: in words; for Emax at 100 µM: read-out: % Emax 5-HT2A, % maximum response (5-HT) at 100 μM.
Series [4] addresses T2, human 5-HT2C receptor. The series can be described thus: Functional Ca2+ mobilization fluorescence assay in HeLa-5-HT2C cells. The class given is cell-based. The following applies: for agonist character at 5-HT2C receptor: functional assay, in words; for Emax at 100 µM: read-out: % Emax 5-HT2C.
For series [5] the following is noted: hydrochlorides; ref [12],[13]; cited from earlier work.
The next series deals with LSD-trained rats. The conditions noted are these: ref [6],[7]; cited from earlier work.
Series [6] concerns the target 5-HT2A receptor. The following applies: ref Trachsel et al., 2009 [23]; cited from earlier work.
Series [7] deals with 5-HT2A receptor. The conditions noted are these: ref Trachsel et al., 2009 [23]; cited from earlier work. This is another data set of the same source.

Structures are written as SMILES. Several values for one entry are separate records, joined by “and”; a condition that tells them apart may be missing. Identical values can stand only once. Entries after “also recorded” stand apart in the source; their conditions may differ. Bounds are passed on as bounds.

T1 sequence (P28223 whole entry): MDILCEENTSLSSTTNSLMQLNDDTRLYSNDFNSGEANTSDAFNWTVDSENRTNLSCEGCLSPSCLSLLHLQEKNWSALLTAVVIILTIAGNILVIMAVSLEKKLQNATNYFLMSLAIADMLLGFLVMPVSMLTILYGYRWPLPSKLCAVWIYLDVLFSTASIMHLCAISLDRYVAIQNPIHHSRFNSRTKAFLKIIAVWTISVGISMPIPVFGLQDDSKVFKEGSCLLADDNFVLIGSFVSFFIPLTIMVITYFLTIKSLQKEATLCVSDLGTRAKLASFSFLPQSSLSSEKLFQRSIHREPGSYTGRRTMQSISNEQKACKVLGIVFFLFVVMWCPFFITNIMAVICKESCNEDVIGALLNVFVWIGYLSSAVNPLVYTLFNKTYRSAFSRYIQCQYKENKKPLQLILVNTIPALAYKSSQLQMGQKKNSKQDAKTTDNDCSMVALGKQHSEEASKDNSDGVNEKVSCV

Take `COc1cc2c(cc1CCN)oc1ccccc12.Cl` [Compound 3, 2-(2-Methoxydibenzo[b,d]furan-3-yl)ethanamine Hydrochloride]: at human 5-HT2A receptor [1], the Ki (commonly the equilibrium dissociation constant of an inhibitor or competing ligand from its target) was above 10000 nM and the “displacement of [3H]ketanserin from the human 5-HT2A receptor” value (from here on “displacement of [3H]ketanserin”) is recorded as below 50%. For the same compound, at human 5-HT2C receptor [2], the “Ki at the human 5-HT2C receptor (in words)” value is on record as “submicromolar” and the 5-HT2A/2C is listed as above 49. Further, affinity at human 5-HT2C receptor [2] (Ki 5-HT2C) was put at a Ki of 204 nM. For the same compound, on human 5-HT2A receptor [3], the EC50 (in general, the concentration at which the effect is half-maximal) stood at 32400 nM and the Emax (usually the size of the effect at its maximum, as opposed to the concentration needed) at 100 µM is 58.2%. Moreover, the “agonist character at 5-HT2A receptor” value at human 5-HT2A receptor [3] (functional assay) is listed as “very weak partial agonist”. In addition, on human 5-HT2C receptor [4], the EC50 came to 53200 nM, the “agonist character at 5-HT2C receptor” value is reported as “extremely weak partial agonists” and the Emax at 100 µM is 54%. Besides, in series [5], the “toxicity (in words)” value is recorded as “toxic”.
Consider `NCCc1c2c(cc3c1OCC3)OCC2` [2C-H-Fly], for which the drug discrimination response entry with LSD-trained rats was “positive drug discrimination response”.
Regarding `COc1ccc2oc3ccccc3c2c1CCN.Cl` [Compound 5, 2-(2-Methoxydibenzo[b,d]furan-1-yl)ethanamine Hydrochloride], on human 5-HT2A receptor [1], the Ki worked out at 2550 nM and the “Ki at the h5-HT2A receptor (in words)” value was “low micromolar”. Moreover, at human 5-HT2C receptor [2], the “selectivity for the 5-HT2C receptor” value was above 70 fold and the 5-HT2A/2C came out at 72. The Ki at human 5-HT2C receptor [2] (Ki 5-HT2C) was 35 nM and 35.3 nM. Besides, at human 5-HT2A receptor [3], the 50% effective concentration (EC50) was found to be 14500 nM and the Emax at 100 µM was 59%. On human 5-HT2A receptor [3] (functional assay), the “agonist character at 5-HT2A receptor” value is given as “partial agonist”. Moreover, the “times weaker as agonist at 5-HT2A than at 5-HT2C” value at human 5-HT2A receptor [3] (functional potency 5-HT2A vs 5-HT2C) amounted to 70 times. Besides, at human 5-HT2C receptor [4], the EC50 was 222 ± 41 nM, the “agonist character at 5-HT2C receptor” value is recorded as “full agonists” and the Emax at 100 µM was 106%.
Turning to `COc1cc(-c2ccccc2)c(OC)cc1CCN` [2C-phenyl, 2-(2,5-dimethoxy-4-phenylphenyl)ethanamine], the pKi – broadly, the negative decadic logarithm of the Ki, by convention in mol/L – at the 5-HT2A receptor on 5-HT2A receptor [6] is reported as 6.11. Moreover, the “functional character at 5-HT2A receptor” value in the series with 5-HT2A receptor [7] is on record as “antagonist”.
Consider `CC(N)Cc1ccc2oc3ccccc3c2c1.Cl` (centres unmarked) [Compound 2, 1-(Dibenzo[b,d]furan-2-yl)propan-2-amine Hydrochloride], for which, at human 5-HT2A receptor [1], the Ki was above 10000 nM and the “displacement of [3H]ketanserin” value was below 50%. On human 5-HT2C receptor [2], the “Ki at the human 5-HT2C receptor (in words)” value is on record as “submicromolar” and the 5-HT2A/2C was > > 21. On human 5-HT2C receptor [2] (Ki 5-HT2C), this compound gave a Ki of 474 nM. For the same compound, on human 5-HT2A receptor [3], the Emax at 100 µM was determined as 64%. Moreover, at human 5-HT2C receptor [4], the EC50 is 3520 ± 740 nM, the “agonist character at 5-HT2C receptor” value was “moderately potent full agonist activity” and the Emax at 100 µM is 112%.
In the case of `Cl.NCCc1cccc2c1oc1ccccc12` [Compound 4, 2-(Dibenzo[b,d]furan-4-yl)ethanamine Hydrochloride], at human 5-HT2A receptor [1], the Ki was above 10000 nM and the “displacement of [3H]ketanserin” value was below 50%. Further, at human 5-HT2C receptor [2], the “Ki at the human 5-HT2C receptor (in words)” value was “submicromolar”, the “selectivity for the 5-HT2C receptor” value is listed as above 70 fold and the 5-HT2A/2C is given as above 71. This compound also gave a Ki at human 5-HT2C receptor [2] (Ki 5-HT2C) of 140 nM. Besides, the affinity at human 5-HT2C receptor [2] (pKi 5-HT2C) corresponds to a Ki of 145 nM. For the same compound, the EC50 on human 5-HT2A receptor [3] was 3330 ± 830 nM. Moreover, at human 5-HT2A receptor [3] (% maximum response (5-HT) at 100 μM), the “% Emax 5-HT2A” value is listed as 88.21 ± 2.79%. Besides, the “EC50 at 5-HT2A receptor (in words)” value on human 5-HT2A receptor [3] (functional assay) is “low micromolar”. Moreover, at human 5-HT2C receptor [4], the EC50 was found to be 1380 ± 190 nM, the “agonist character at 5-HT2C receptor” value is “moderately potent full agonist activity; also recorded: full agonists” and the Emax at 100 µM was 98%.
As to `Cl.NCCc1ccc2oc3ccccc3c2c1` [Compound 1, 2-(Dibenzo[b,d]furan-2-yl)ethanamine Hydrochloride], on human 5-HT2A receptor [1], the Ki was above 10000 nM and the “displacement of [3H]ketanserin” value was below 50%. For the same compound, at human 5-HT2C receptor [2], the “Ki at the human 5-HT2C receptor (in words)” value was “submicromolar” and the 5-HT2A/2C is > > 14. Further, the Ki at human 5-HT2C receptor [2] (Ki 5-HT2C) is 737 nM. On human 5-HT2A receptor [3], the EC50 was 22600 nM and the Emax at 100 µM is 66.1%. At human 5-HT2C receptor [4], the “agonist character at 5-HT2C receptor” value is recorded as “extremely weak partial agonists” and the Emax at 100 µM worked out at 49.1%. For the same compound, the “toxicity (in words)” value in series [5] was “toxic”.

These data come from article PMC7016908 (ACS Omega, 2020).
